These results are taken from PubChem BioAssay AID2006 (Sanford-Burnham Center for Chemical Genomics, 2009).

A word on the IC50: it is the concentration that inhibits the measured activity by half.

The assay addresses SUMO-conjugating enzyme UBC9 (Homo sapiens) (UniProt P63279). Put plainly: blockers of SAE1/SAE2–UBC9 SUMO transfer – biochemical, HTRF, uHTS, primary screen (AID 2006). The conditions noted are these: HTRF SUMOylation assay, SAE1/SAE2 + UBC9, in vitro.

SMILES strings stand for the structures.

Chain of SUMO-conjugating enzyme UBC9 (Homo sapiens) (P63279 whole entry, looked up): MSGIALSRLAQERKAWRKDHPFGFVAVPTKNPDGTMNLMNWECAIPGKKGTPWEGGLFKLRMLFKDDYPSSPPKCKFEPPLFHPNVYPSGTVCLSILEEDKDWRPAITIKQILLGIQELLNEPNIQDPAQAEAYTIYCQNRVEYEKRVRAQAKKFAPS

Turning to `NS(=O)(=O)c1ccc(NC(=O)c2ccc(-c3ccccc3)cc2)cc1`, the concentration for half-maximal inhibition (IC50) is 13.8 µM. The result for `O=C(O)c1ccc(/C=N/NC(=O)c2ccc(CN3c4cccc5cccc(c45)S3(=O)=O)cc2)cc1` reads 11.1 µM; that for `O=C1NC(=Nc2ccc3ccccc3c2)S/C1=C/c1ccco1`, 14 µM. As for `O=C(CN1C(=O)S/C(=C\c2ccccc2)C1=O)NNC(=O)c1ccccc1O`, the figure is 37.9 µM.
